Measurements: PMC3572379, “Pharmacokinetic and pharmacodynamic effects of comedication of clopidogrel and dabigatran etexilate in healthy male volunteers” (European Journal of Clinical Pharmacology, 2012)
Where two headings read alike, the source gives them in different places.

How the values were obtained:
[1] = Plasma pharmacokinetics (HPLC-MS/MS) in open-label drug–drug interaction trial
Experimental: The treatment phase was divided into three separate parts, each with a different set of subjects. Part 1 (pilot study) was an open-label, multiple-dose (for dabigatran etexilate) and single-dose (for clopidogrel), fixed-sequence study. A single dose of clopidogrel 300 mg was given in addition to dabigatran etexilate 150 mg bid in steady state (Table 1). Part 2 (main study) was a randomized, open-label, multiple-dose, crossover study, with three periods of up to 5 days separated by washout periods of at least 14 days. The test treatment consisted of a clopidogrel 300 mg loading dose on day 1, followed by a 75 mg dose on day 2, then clopidogrel 75 mg qd in combination with dabigatran etexilate 150 mg bid on days 3–5 (Table 1). Part 3 (main study) was an open-label, multiple-dose (for dabigatran etexilate) and single-dose (for clopidogrel), fixed-sequence study. A single dose of clopidogrel 600 mg was given alone or in addition to dabigatran 150 mg bid at steady state (Table 1).
Although there are no reported interactions of food with dabigatran etexilate or clopidogrel, the morning medication was administered with about 240 mL of water following an overnight fast of at least 10 h, and no food was allowed until 4 h after drug administration. According to the twice-daily regimen dabigatran etexilate was similarly administered again 12 h later. Subjects were not allowed to lie down during the 2 h following drug administration, and water was limited for 1 h before and after drug administration. On dosing days a light non-standardized breakfast was given 1 h after morning drug administration. On profile days, no food was given until 4 h after administration. No concomitant therapy was allowed during the study, except for prophylactic thyroid hormone replacement and for symptomatic therapy of adverse events (AEs) in need of treatment.
For PK parameter evaluations, blood samples were taken for the determination of plasma concentrations of free, nonconjugated dabigatran, total dabigatran (after alkaline cleavage of conjugates), and the prodrug dabigatran etexilate, and of clopidogrel and SR26334.
Blood samples were taken before and at specified intervals up to 24 h after the morning clopidogrel dose, and before and up to 24 h after the morning and evening dabigatran etexilate dose. Timings of PK/PD sampling are shown in Supplementary Table 1.
Blood samples (∼2.7 mL for dabigatran and ∼4.0 mL for clopidogrel) were collected into tubes containing potassium ethylenediaminetetraacetic acid for PK analysis. Samples were centrifuged, and the resulting plasma samples were separated and stored at −70°C or below.
Plasma concentrations of free, nonconjugated dabigatran; total dabigatran (sum of free and conjugated dabigatran measured after alkaline cleavage of conjugates); the prodrug dabigatran etexilate; clopidogrel; and SR26334 were determined by validated high-performance liquid chromatography tandem mass spectrometry (HPLC-MS/MS) at AAI Pharma Deutschland (Neu-Ulm, Germany). The calibration curves for free and total dabigatran covered a range from 1.00 to 400 ng/mL plasma in undiluted samples. […] Maximum imprecision and inaccuracy for quality control samples at concentrations of 3, 30, and 320 ng/mL were 6.62 and +5.86%, respectively. For the prodrug, maximum imprecision and inaccuracy were 6.63 and +2.83%, respectively.
Calibration curves for clopidogrel and SR26334 covered concentration ranges of 0.01–10 ng/mL and 0.02–20 μg/mL, respectively, with an inaccuracy generally below 4% and imprecision below 9%. For blood coagulation parameters aPTT, ECT, and TT (PD analyses), ∼3 mL of blood were collected in sodium citrate monovettes at the time points indicated for PK analyses. The blood samples were centrifuged, frozen, and stored at −20°C or below.

[2] = tested on: blood coagulation parameters (aPTT, ECT, TT); assay: Blood coagulation parameters aPTT, ECT and TT (anti-factor IIa); format: in vivo, healthy male subjects
Experimental: The secondary endpoints included other PK parameters and the effects of clopidogrel on the PD of dabigatran assessed by ECT, aPTT, TT (including maximum effect ratio, ERmax) as well as the CBT.
Calibration curves for clopidogrel and SR26334 covered concentration ranges of 0.01–10 ng/mL and 0.02–20 μg/mL, respectively, with an inaccuracy generally below 4% and imprecision below 9%. For blood coagulation parameters aPTT, ECT, and TT (PD analyses), ∼3 mL of blood were collected in sodium citrate monovettes at the time points indicated for PK analyses. The blood samples were centrifuged, frozen, and stored at −20°C or below. The aPTT, ECT, and TT parameters were analyzed on an MC10PLUS coagulometer using validated methods by BiochemA, Riegel, Germany. aPTT was measured using a kit from Roche Diagnostics (Mannheim, Germany) according to manufacturer’s instructions, and the ECT assay utilized ecarin from Pentapharm (Basel, Switzerland). Thrombin inhibition (TT), anti-factor IIa, was measured by the Hemoclot Thrombin Inhibitors Assay® (Hemoclot® TT #CK002K, HYPHEN BioMed, Neuville-sur-Oise, France) according to the manufacturer’s instructions. The Hemoclot kit was used for the quantitative measurement of direct thrombin inhibitors in plasma, with a clotting method based on the inhibition of a constant and defined concentration of thrombin.
AUEC and ERmax of aPTT, ECT, and TT as well as CBT, and safety and tolerability were assessed descriptively as secondary parameters.

[3] = tested on: ADP-induced platelet aggregation; assay: ADP-induced inhibition of platelet aggregation (light transmission aggregometry in citrated PRP); format: in vivo, healthy male subjects; details: DE 150 mg coadministered; after single dose clopidogrel 300 mg
Experimental: The primary endpoints for PD were area under the effect curve of ADP-induced inhibition of platelet aggregation (IPA) at steady state of clopidogrel over one dosing interval from 0–24 h after dosing (AUECIPA,τ,ss); maximum percentage change compared with baseline in ADP-induced platelet aggregation at steady state of clopidogrel (Emax,IPA,ss); AUEC from 0 to 24 h (AUECIPA,0–24) after the loading dose of clopidogrel 600 mg; and the maximum percentage change compared with baseline in ADP-induced platelet aggregation from 0 to 24 h (Emax,IPA,0–24) after the loading dose of clopidogrel 600 mg.
The following PD parameters were also evaluated: • For clopidogrel, ADP-induced IPA was determined at predefined time points. • Capillary bleeding times were assessed (part 2 and part 3 of the study) before clopidogrel administration, 2, 4, and 12 h after clopidogrel administration, and following administration of dabigatran etexilate alone.
For platelet aggregation testing, ∼9 mL of blood was collected into a 10 mL monovette containing citrate to yield a final concentration of 10.6 mM. Platelet-rich plasma (PRP) was prepared by centrifugation and removed from the red-cell sediment. Approximately 0.5 mL platelet-poor plasma (PPP) was prepared from PRP by further centrifugation. Inhibition of platelet aggregation was performed by light transmission aggregometry in citrated PRP, using an 8-channel platelet aggregation profiler (PAP 8) aggregometer (möLab, Germany). The PRP (0% light transmission) and PPP (100% light transmission) served as reference. After baseline adjustment, ADP in a final concentration of 20 μM was added and aggregation recorded for 6 min. Maximum aggregation (%) within the first 6 min after addition of ADP was determined.

P-gp = details: cited from earlier work
[4] = Safety and tolerability assessment; format: in vivo, healthy male subjects; details: given alone or in combination with clopidogrel
[5] = Capillary bleeding time (Surgicutt device); format: in vivo, healthy male subjects
Experimental: The bleeding time was assessed by single measurements on the forearm using the Surgicutt® Bleeding Time Device (Product Number SUB50, International Technidyne, Edison, NJ, USA). Using a Surgicutt device, a standardized incision of 5 mm length and 1 mm depth was made in the skin. Every 30 s, the blood flow was wicked away cautiously with filter paper, so that the platelet plug remained intact, until the bleeding stopped. Normal bleeding time was under 8 min. For the CBT individual listings including the baseline value, the maximum value of the post-dose measurements, and the corresponding time of the maximum value were provided.

[6] = cited from earlier work
[7] = cited from earlier work; remark: listed apart in the source
[8] = part 2, clopidogrel 75 mg qd + DE 150 mg bid vs clopidogrel 75 mg qd
[9] = part 2, reference: clopidogrel 75 mg qd alone, n=23
[10] = part 2, test: clopidogrel 75 mg qd + DE 150 mg bid, n=21, clopidogrel metabolite
[11] = part 3, DE 150 mg bid + clopidogrel 600 mg vs clopidogrel 600 mg

O=C(O)[C@H](c1ccccc1Cl)N1CCc2sccc2C1 [SR26334]
AUC0–24 ([1]; part 1, clopidogrel 300 mg single dose with DE 150 mg bid): 35,400 pg h/mL | AUCτ,ss ratio test/reference, gMean [1, 8]: 110% | Cmax,ss ratio test/reference, gMean [1, 8]: 103% | AUCτ,ss, gMean [1, 9]: 8008 ng·h/mL | Cmax,ss, gMean [1, 9]: 2689 ng/mL | AUCτ,ss, gMean [1, 10]: 8807 ng·h/mL | Cmax,ss, gMean [1, 10]: 2760 ng/mL | AUC0-24 ratio test/reference, gMean [1, 11]: 97.8% | Cmax ratio test/reference, gMean [1, 11]: 85.7% | AUC0-24, gMean ([1]; part 3, reference: clopidogrel 600 mg alone, n=12): 84.3 ng·h/mL | AUC0-24, gMean ([1]; part 3, test: DE 150 mg bid + single dose clopidogrel 600 mg): 82.5 ng·h/mL

CCCCCCOC(=O)NC(=N)c1ccc(NCc2nc3cc(C(=O)N(CCC(=O)OCC)c4ccccn4)ccc3n2C)cc1 [dabigatran etexilate]
increase in gMean AUECτ,ss of aPTT ([2]; part 1, DE 150 mg bid steady state with single dose clopidogrel 300 mg vs DE alone): about 30% | AUEC τ,ss and ERmax,ss of TT, ECT and aPTT after concomitant administration ([2]; part 2, clopidogrel 75 mg qd (300 mg loading dose) + DE 150 mg bid): not altered | change in AUECτ,ss of aPTT ([2]; part 3, DE 150 mg bid with single dose clopidogrel 600 mg vs DE alone): approximately 36.5% | dabigatran-related effect on TT, ECT and aPTT when clopidogrel coadministered ([2]; part 3, single dose clopidogrel 600 mg coadministered with DE 150 mg bid): slightly increased | effect of coadministration on maximum ADP-dependent platelet aggregation achieved after clopidogrel [3]: did not alter | substrate for P-gp (P-gp): is a substrate for P-gp | overall safety [4]: did not seem to cause any safety issues | CBT on coadministration compared with clopidogrel alone ([5]; part 3, DE 150 mg bid with clopidogrel 600 mg vs single dose clopidogrel 600 mg alone): did not increase

[H]/N=C(/N)c1ccc(NCc2nc3cc(C(=O)N(CCC(=O)O)c4ccccn4)ccc3n2C)cc1 [dabigatran]
effect on coagulation parameters (aPTT, ECT, anti-factor IIa) when clopidogrel added ([2]; part 1, single dose clopidogrel 300 mg added to steady-state DE 150 mg bid): slightly increased | substrate for P-gp (P-gp): not | increase in bioavailability (AUCτ,ss) ([1]; male, human, in vivo): 32% | glucuronide conjugates as share of total dabigatran in plasma [6]: about 20% | half-life ([6]; multiple-dose administration): 14 to 17 h | half-life ([6]; single-dose administration): 8 to 10 h | maximum capillary bleeding time (CBT) ([5]; part 2): did not prolong

O=C(NC[C@H]1CN(c2ccc(N3CCOCC3=O)cc2)C(=O)O1)c1ccc(Cl)s1 [rivaroxaban]
bleeding time, overall least square means [7]: 1.13 times baseline

CCOC(=O)CN[C@@H](C(=O)N1CC[C@H]1C(=O)NCc1ccc(/C(N)=N\O)cc1)C1CCCCC1 [ximelagatran]
further prolongation of CBT ([7]; phase I trial, in combination with acetylsalicylic acid (ASA) compared with ASA alone): about 40%
